Reference: patent publication US10064800B2, “Transglutaminase activator” (Kao Corporation, priority 2012, dated 2018)
Where two headings read alike, the source gives them in different places.

Tests used:
transglutaminase = assay: Measurement of transglutaminase activity in lysate of treated keratinocytes (Transglutaminase Colorimetric Microassay Kit); assay type: cell-based, human; conditions: for Transglutaminase activity: HEKn cells, 3 days, relative value, n = 3
[1] = test system: Normal human epidermal keratinocytes NHEK(F); assay: Verification of ceramide production enhancing effect (TLC of cell lipids); assay type: cell-based; conditions: 3 days, 0.1 μM, relative value, 50 vol % ethanol = 1
Procedure: Normal human epidermal keratinocytes (trade name: NHEK(F), manufactured by Kurabo Industries, Ltd.) were cultured under the conditions of 37° C. and 5% CO2, in a culture medium (trade name: EpiLife-KG2, manufactured by Kurabo Industries, Ltd.) using a culture plate.
Thereafter, the culture medium was exchanged with EpiLife-KG2 without growth factors such as epidermal growth factor, and a dilution prepared from the extract from Justicia procumbens prepared in the Preparation Example 1-2, the concentration of which was adjusted to 1 w/v % in terms of solids content, […] Alternatively, the culture medium was exchanged with EpiLife-KG2 without growth factors such as epidermal growth factor, and a dilution prepared from the extract from Peristrophe japonica prepared in the Preparation Example 2-2, the concentration of which was adjusted to 1 w/v % in terms of solids content, was added to the culture fluid in an amount of 0.1%. […]
Further, 0.1 N NaOH and a 1% aqueous SDS solution were added to the cells from which lipids had been extracted, and the mixture was heated at 60° C. for 2 hours to thereby solubilize proteins. […] The amount of proteins was quantified by the BCA method. […]
A ceramide amount was measured using recovered cells in a manner similar to Test Example 2-1. […]

IVL gene = assay: Evaluation of IVL gene expression (Real-time RT-PCR, HaCaT); assay type: cell-based, human; conditions: 24 hours, 0.01 μM, corrected by RPLPO, relative value, DMSO = 1
Procedure: Human epidermal keratinocyte line HaCaT was cultured in a culture medium in which 10% fetal calf serum inactivated, and 1% penicillin-streptomycin (manufactured by Gibco Laboratories) were added to DMEM (manufactured by Gibco Laboratories), under conditions of 37° C. and 5% CO2.
In a 6-well plate, HaCaT cells were seeded in an amount of 5×10^4 pieces/well, and cultured. On the following day, exchange was carried out for a culture medium containing the exemplified compound (18) at a final concentration shown in Table 10, and culture was further carried out for 24 hours. In place of the exemplified compound (18), as a control, exchange was carried out for a culture medium containing at a final concentration of 0.1% v/v DMSO being a solvent, and culture was further carried out for 24 hours, and thus the resultant cultured product was used. After 24 hours from addition of the exemplified compound (18), the cells were washed twice using PBS(−), and total RNA was extracted using RNeasy (registered trademark) Mini Kit (manufactured by QIAGEN). A concentration of total RNA was measured, and a fixed amount of total RNA was used as a template, and a reverse transcription reaction was carried out using High capacity RNA-to-cDNA Kit (trade name, manufactured by Applied Biosystems, Inc.).
IVL gene expression was quantitatively determined from the resultant cDNA by Real-time RT-PCR. […]

[2] = evaluated conc. 0.1 μM, control DMSO = 1
[3] = evaluated conc. 1 μM, control DMSO = 1
[4] = evaluated conc. 0.01 μM, control DMSO = 1
[5] = fractions from Justicia procumbens extract, result in words

| Compound | Transglutaminase activity (transglutaminase; [2]) | Transglutaminase activity (transglutaminase; [3]) | Transglutaminase activity (transglutaminase; [4]) | other results |
| --- | --- | --- | --- | --- |
| O=C1OCc2cc3ccc4c(c3cc21)OCO4 [Exemplified compound (19), furo[3′,4′,6,7]naphtho[1,2-d]-1,3-dioxole-9(7H)-one] | 1.98 ± 0.83 | 2.37 ± 0.26 | – | – |
| COc1cc2c(OC)c3c(c(-c4ccc5c(c4)OCO5)c2cc1OC)C(=O)OC3 [Exemplified compound (14), 4,6,7-trimethoxy-9-(1,3-benzodioxol-5-yl)naphtho[2,3-c]furan-1(3H)-one] | 2.42 ± 0.55 | 2.19 ± 0.98 | 1.22 ± 0.51 | Transglutaminase activity of isolated HPLC fraction (transglutaminase; [5]): confirmed to exist |
| COc1cc2cc3c(c(-c4ccc5c(c4)OCO5)c2cc1OC)C(=O)OC3 [Exemplified compound (12), 6,7-dimethoxy-9-(1,3-benzodioxol-5-yl)naphtho[2,3-c]furan-1(3H)-one] | 2.80 ± 1.73 | – | 1.20 ± 0.16 | Ceramide amount (Average value in n = 2) [1]: 1.30; Transglutaminase activity of isolated HPLC fraction (transglutaminase; [5]): confirmed to exist |
| Tuberculatin-5″-acetate [Exemplified compound (18)] | 2.78 ± 0.19 | 5.44 ± 0.19 | – | IVL gene amount (Average value in n = 2) (IVL gene): 1.32; Transglutaminase activity of isolated HPLC fraction (transglutaminase): confirmed to exist |
| CCOc1c2c(c(-c3ccc4c(c3)OCO4)c3cc(OC)c(OC)cc13)C(=O)OC2 [Exemplified compound (15), 4-ethoxy-6,7-dimethoxy-9-(1,3-benzodioxol-5-yl)naphtho[2,3-c]furan-1(3H)-one] | 1.33 ± 0.39 | 1.66 ± 0.33 | 1.25 ± 0.22 | – |
| [Ca+2].[Cl-].[Cl-] [Positive control (Ca^2+), CaCl2, reference compound] | – | – | – | Transglutaminase activity (transglutaminase; CaCl2 1.5 mM positive control, control = 1): 1.51 ± 0.20 |
| COc1cc([C@@H]2c3cc4c(cc3C[C@H]3COC(=O)[C@@H]32)OCO4)cc(OC)c1OC [(2), reference compound] | – | 0.20 ± 0.18 | – | – |
| COc1cc2c(OC)c3c(c(-c4cc5c(cc4O)OCO5)c2cc1OC)C(=O)OC3 [(4), reference compound] | 0.39 ± 0.10 | 0.22 ± 0.08 | 0.60 ± 0.28 | – |
| COc1c2c(c(-c3ccc4c(c3)OCO4)c3cc4c(cc13)OCO4)C(=O)OC2 [(3), reference compound] | 0.97 ± 0.43 | 0.70 ± 0.24 | 0.75 ± 0.49 | – |
| COc1cc([C@@H]2c3cc4c(c(OC)c3C[C@H]3COC(=O)[C@@H]32)OCO4)cc(OC)c1OC [(1), reference compound] | – | 0.24 ± 0.21 | – | – |
| COc1cc2c(OC(C)=O)c3c(c(-c4ccc5c(c4)OCO5)c2cc1OC)C(=O)OC3 [Exemplified compound (16), 4-acetoxy-6,7-dimethoxy-9-(1,3-benzodioxol-5-yl)naphtho[2,3-c]furan-1(3H)-one] | 1.46 ± 0.54 | 2.10 ± 0.86 | – | – |
| COc1cc2c(O)c3c(c(-c4ccc5c(c4)OCO5)c2cc1OC)C(=O)OC3 [Exemplified compound (13), 4-hydroxy-6,7-dimethoxy-9-(1,3-benzodioxol-5-yl)naphtho[2,3-c]furan-1(3H)-one] | 1.75 ± 0.61 | – | 1.95 ± 0.53 | – |
| O=C1OCc2cc3ccccc3c(-c3ccccc3)c21 [Exemplified compound (11), 9-phenylnaphtho[2,3-c]furan-1(3H)-one] | 1.29 ± 0.40 | 1.48 ± 0.22 | 1.10 ± 0.22 | – |
